Source: BigSolDB 2.1

COc1cc(CC#N)cc(OC)c1OC
solubility (mole fraction)
Conditions	283.15 K	288.15 K	293.15 K	298.15 K	303.15 K	308.15 K	313.15 K	318.15 K	323.15 K
in DMF	0.102	0.127	0.158	0.195	0.239	0.289	0.35	0.418	0.497
in cyclohexane	0.000133	0.000248	0.000452	0.000814	0.00154	0.00253	0.00421	0.00671	0.011
in ethanol	0.00753	0.00999	0.0141	0.0209	0.0327	0.0539	0.0927	0.167	0.312
in ethyl acetate	0.0517	0.076	0.107	0.146	0.195	0.25	0.315	0.386	0.461
in isopropanol	0.00545	0.00703	0.00942	0.0134	0.0199	0.0305	0.0497	0.0838	0.146
in isopropyl acetate	0.0389	0.0537	0.0736	0.101	0.135	0.182	0.243	0.321	0.423
in methanol	0.00958	0.0128	0.0179	0.0261	0.0402	0.0638	0.106	0.183	0.327
in n-butanol	0.00774	0.00978	0.0129	0.018	0.0265	0.0409	0.0657	0.111	0.193
in n-heptane	5.37e-05	0.000146	0.000336	0.000693	0.00141	0.00222	0.00361	0.00573	0.00905
in n-hexane	0.000515	0.000732	0.00107	0.0016	0.00233	0.0035	0.00533	0.00803	0.0121
in n-propanol	0.00747	0.00951	0.0127	0.0179	0.0264	0.041	0.0658	0.111	0.191
in sec-butanol	0.00911	0.0137	0.0206	0.0314	0.0481	0.0755	0.118	0.189	0.301
